According to patent US8026218B2, “Bifunctional analgesic compounds for opioid receptor agonists and neurokinin-1 receptor antagonists” (The University of Arizona, priority 2006, dated 2011):
Like-named read-outs stand apart in the source and are kept apart here. Peptide text beside a SMILES is read from it.

Tests used:
μ opioid receptors (GPI) = test: Guinea pig isolated ileum (GPI) assay, opioid agonist;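 also: inhibition of electrically evoked contractions (0.1 Hz, 0.4 msec, supramaximal voltage) in organ baths at 37 °C, contraction height 3 min after each cumulative dose versus the 1 min before dosing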
δ opioid receptors (MVD) = molecular target: T1, δ opioid receptors (MVD) (Mus musculus, UniProt P32300); test: Mouse isolated vas deferens (MVD) assay, opioid agonist
T1 construct: from tissue; host or cells: mouse (ICR) isolated vas deferens

[1] = molecular target: T2, human δ opioid receptors (hDOR) (Homo sapiens, UniProt P41143); test: [35S]GTP-γ-S binding assay, hDOR; assay type: biochemical; conditions: for EC50: read-out: GTP hDOR EC50
T2 construct: expressed in transfected cells; host or cells: HN9.10 neuroblastoma cell line, pCDNA3, neomycin-selected clones

[2] = molecular target: T3, Substance P receptors (guinea pig NK1) (Cavia porcellus, UniProt P30547); test: Guinea pig isolated ileum (GPI) assay with substance P stimulation in presence of 1 μM naloxone
T3 construct: from tissue; host or cells: guinea pig (Hartley) ileum LMMP, 1 μM naloxone present

[3] = molecular target: T4, rat μ opioid receptors (rMOR) (Rattus norvegicus, UniProt P33535); test: biochemical; assay type: biochemical
T4 construct: expressed in transfected cells; host or cells: HN9.10 neuroblastoma cell line, pCDNA3, neomycin-selected clones

[4] = molecular target: T5, human NK1 receptor (hNK1) (Homo sapiens, UniProt P25103); test: Radioligand competition binding, [3H]-Substance P, hNK1
T5 construct: expressed in transfected cells

rat NK1 (rNK1) receptor = molecular target: T6, rat NK1 (rNK1) receptor (Rattus norvegicus, UniProt P14600); test: Radioligand competition binding, [3H]substance P, rNK1/CHO membranes; conditions: Ki (nM) rNK1, Table 33
T6 construct: expressed in transfected cells; host or cells: CHO (rNK-1/CHO cell line from Dr. James Krause)

[5] = Table 35, read-out: GPI/LMMP μ-agonist IC50
[6] = Table 36, read-out: GPI μ-agonist IC50
[7] = Table 32, read-out: GTP hDOR EMax
[8] = GPI/LMMP SP antagonist Ke (nM), Table 35
[9] = Table 32, read-out: GTP rMOR EC50
[10] = Table 32, read-out: GTP rMOR EMax
[11] = Table 39, read-out: GTP binding hDOR Emax
[12] = Table 39, read-out: GTP binding rMOR Emax
[13] = Table 39, read-out: GPI/LMMP opioid(mu) agonist (IC50; nM)

T5 sequence (P25103 whole entry): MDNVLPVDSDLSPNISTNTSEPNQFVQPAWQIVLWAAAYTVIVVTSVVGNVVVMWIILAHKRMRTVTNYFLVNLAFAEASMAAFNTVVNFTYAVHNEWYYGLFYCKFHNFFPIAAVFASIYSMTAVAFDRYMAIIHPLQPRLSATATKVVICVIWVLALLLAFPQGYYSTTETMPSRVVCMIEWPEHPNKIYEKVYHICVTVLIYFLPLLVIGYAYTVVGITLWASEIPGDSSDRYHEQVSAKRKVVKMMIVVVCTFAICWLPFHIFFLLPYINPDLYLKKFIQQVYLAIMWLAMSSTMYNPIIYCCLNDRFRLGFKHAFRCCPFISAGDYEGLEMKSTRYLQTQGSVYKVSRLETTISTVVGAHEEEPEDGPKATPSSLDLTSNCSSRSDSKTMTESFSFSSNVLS
T3 sequence (P30547 whole entry): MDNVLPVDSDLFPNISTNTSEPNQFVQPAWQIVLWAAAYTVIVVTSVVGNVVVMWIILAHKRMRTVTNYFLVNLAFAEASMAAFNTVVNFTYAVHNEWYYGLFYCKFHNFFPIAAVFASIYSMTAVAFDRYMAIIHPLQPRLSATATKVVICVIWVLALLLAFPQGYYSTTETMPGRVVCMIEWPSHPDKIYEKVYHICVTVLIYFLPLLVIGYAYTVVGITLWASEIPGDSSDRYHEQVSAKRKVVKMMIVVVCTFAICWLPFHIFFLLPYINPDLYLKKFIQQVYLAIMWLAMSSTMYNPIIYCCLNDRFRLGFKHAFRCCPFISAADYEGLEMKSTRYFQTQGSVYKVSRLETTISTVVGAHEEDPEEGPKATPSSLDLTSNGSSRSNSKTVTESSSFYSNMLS
T2 sequence (P41143 whole entry): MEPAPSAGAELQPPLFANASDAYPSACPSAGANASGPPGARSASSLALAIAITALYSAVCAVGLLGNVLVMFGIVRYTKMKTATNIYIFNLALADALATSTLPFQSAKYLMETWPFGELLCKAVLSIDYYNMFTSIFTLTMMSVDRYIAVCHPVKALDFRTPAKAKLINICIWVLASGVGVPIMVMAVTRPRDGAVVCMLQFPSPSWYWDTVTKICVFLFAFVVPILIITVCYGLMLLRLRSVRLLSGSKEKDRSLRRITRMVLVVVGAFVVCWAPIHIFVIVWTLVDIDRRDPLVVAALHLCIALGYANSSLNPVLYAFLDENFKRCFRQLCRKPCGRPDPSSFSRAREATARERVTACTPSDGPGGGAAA
T1 sequence (P32300 whole entry): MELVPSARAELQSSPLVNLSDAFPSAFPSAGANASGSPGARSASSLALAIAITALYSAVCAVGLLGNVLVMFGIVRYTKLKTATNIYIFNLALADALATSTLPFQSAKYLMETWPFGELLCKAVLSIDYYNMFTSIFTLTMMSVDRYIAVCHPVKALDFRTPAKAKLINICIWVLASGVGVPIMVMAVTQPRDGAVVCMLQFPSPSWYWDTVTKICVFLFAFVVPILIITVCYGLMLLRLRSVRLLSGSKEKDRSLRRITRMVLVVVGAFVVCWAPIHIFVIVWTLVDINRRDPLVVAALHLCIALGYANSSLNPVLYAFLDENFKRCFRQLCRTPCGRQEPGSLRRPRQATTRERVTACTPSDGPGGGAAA
T4 sequence (P33535 whole entry): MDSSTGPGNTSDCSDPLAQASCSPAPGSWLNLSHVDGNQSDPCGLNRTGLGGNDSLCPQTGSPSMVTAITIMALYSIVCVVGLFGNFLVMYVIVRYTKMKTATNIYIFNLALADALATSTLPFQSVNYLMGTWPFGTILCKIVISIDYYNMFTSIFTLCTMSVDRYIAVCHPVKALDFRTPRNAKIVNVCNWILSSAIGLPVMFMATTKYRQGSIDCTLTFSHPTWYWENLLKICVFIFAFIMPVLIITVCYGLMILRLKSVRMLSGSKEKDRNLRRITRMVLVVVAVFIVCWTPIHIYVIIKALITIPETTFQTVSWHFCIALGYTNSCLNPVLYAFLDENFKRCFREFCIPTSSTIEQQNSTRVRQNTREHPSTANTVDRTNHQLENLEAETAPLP
T6 sequence (P14600 whole entry): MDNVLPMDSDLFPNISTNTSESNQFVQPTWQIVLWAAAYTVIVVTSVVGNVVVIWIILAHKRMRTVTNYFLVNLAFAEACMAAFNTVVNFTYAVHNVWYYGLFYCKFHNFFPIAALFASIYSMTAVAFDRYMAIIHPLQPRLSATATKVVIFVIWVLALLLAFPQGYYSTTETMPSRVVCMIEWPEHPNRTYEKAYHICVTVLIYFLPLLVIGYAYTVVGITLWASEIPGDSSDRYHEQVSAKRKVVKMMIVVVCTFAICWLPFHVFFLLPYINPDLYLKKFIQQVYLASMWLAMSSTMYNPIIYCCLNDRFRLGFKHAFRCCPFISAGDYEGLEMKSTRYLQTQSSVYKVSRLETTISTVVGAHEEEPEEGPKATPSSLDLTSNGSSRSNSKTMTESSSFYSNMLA

## C[C@@H](NC(=O)[C@@H](N)Cc1ccc(O)cc1)C(=O)NCC(=O)N[C@@H](Cc1ccccc1)C(=O)NCC(=O)N[C@@H](Cc1c[nH]c2ccccc12)C(=O)OCc1cc(C(F)(F)F)cc(C(F)(F)F)c1 [NP30] (HELM PEPTIDE1{Y.[dA].G.F.G.W.[FC(F)(F)c1cc(CO[*:1])cc(C(F)(F)F)c1]}$$$$V2.0; N-terminus assumed)
μ opioid receptors (GPI); [5]
  IC50: 25.7 nM

## C[C@@H](NC(=O)[C@@H](N)Cc1ccc(O)cc1)C(=O)NCC(=O)N[C@@H](Cc1ccccc1)C(=O)NCCC(=O)N[C@@H](Cc1c[nH]c2ccccc12)C(=O)OCc1cc(C(F)(F)F)cc(C(F)(F)F)c1 [NP32] (HELM PEPTIDE1{Y.[dA].G.F.[bAla].W.[FC(F)(F)c1cc(CO[*:1])cc(C(F)(F)F)c1]}$$$$V2.0; N-terminus assumed)
μ opioid receptors (GPI); [5]
  IC50: 435 nM

## C[C@@H](NC(=O)[C@@H](N)Cc1ccc(O)cc1)C(=O)NCC(=O)N[C@@H](Cc1ccccc1)C(=O)N[C@@H](Cc1c[nH]c2ccccc12)C(=O)OCc1cc(C(F)(F)F)cc(C(F)(F)F)c1 [NP36] (HELM PEPTIDE1{Y.[dA].G.F.W.[FC(F)(F)c1cc(CO[*:1])cc(C(F)(F)F)c1]}$$$$V2.0; N-terminus assumed)
μ opioid receptors (GPI); [6]
  IC50: 523 nM

## CSCC[C@H](NC(=O)[C@H](Cc1ccccc1)NC(=O)CNC(=O)[C@@H](C)NC(=O)[C@@H](N)Cc1ccc(O)cc1)C(=O)N[C@@H](Cc1c[nH]c2ccccc12)C(=O)OCc1cc(C(F)(F)F)cc(C(F)(F)F)c1 [NP38] (HELM PEPTIDE1{Y.[dA].G.F.M.W.[FC(F)(F)c1cc(CO[*:1])cc(C(F)(F)F)c1]}$$$$V2.0; N-terminus assumed)
μ opioid receptors (GPI); [5]
  IC50: 393 nM
δ opioid receptors (MVD)
  IC50: 9.07 nM
[1]; Table 32
  EC50: 1.1 nM
[1]; [7]
  Emax: 36%
[2]; [8]
  Kb: 2 nM
[3]; [9]
  EC50: 0.8 nM
[3]; [10]
  Emax: 51%

## C[C@@H](NC(=O)[C@@H](N)Cc1ccc(O)cc1)C(=O)NCC(=O)N[C@@H](Cc1ccccc1)C(=O)N1CCC[C@H]1C(=O)N[C@@H](Cc1c[nH]c2ccccc12)C(=O)OCc1cc(C(F)(F)F)cc(C(F)(F)F)c1 [NP39] (HELM PEPTIDE1{Y.[dA].G.F.P.W.[FC(F)(F)c1cc(CO[*:1])cc(C(F)(F)F)c1]}$$$$V2.0; N-terminus assumed)
μ opioid receptors (GPI); [5]
  IC50: 259 nM
[4]
  Ki: 0.1 nM

## C[C@@H](NC(=O)[C@H](Cc1ccccc1)NC(=O)CNC(=O)[C@@H](C)NC(=O)[C@@H](N)Cc1ccc(O)cc1)C(=O)N[C@@H](Cc1c[nH]c2ccccc12)C(=O)OCc1cc(C(F)(F)F)cc(C(F)(F)F)c1 [NP40] (HELM PEPTIDE1{Y.[dA].G.F.[dA].W.[FC(F)(F)c1cc(CO[*:1])cc(C(F)(F)F)c1]}$$$$V2.0; N-terminus assumed)
μ opioid receptors (GPI); [5]
  IC50: 528 nM
δ opioid receptors (MVD)
  IC50: 58 nM
[1]; Table 32
  EC50: 71.3 nM
[1]; [7]
  Emax: 89%
[2]; [8]
  Kb: 608 nM
[3]; [9]
  EC50: 93.1 nM
[3]; [10]
  Emax: 19%

## C[C@@H](NC(=O)[C@@H](N)Cc1ccc(O)cc1)C(=O)NCC(=O)N[C@@H](Cc1c[nH]c2ccccc12)C(=O)OCc1cc(C(F)(F)F)cc(C(F)(F)F)c1 [NP44] (HELM PEPTIDE1{Y.[dA].G.W.[FC(F)(F)c1cc(CO[*:1])cc(C(F)(F)F)c1]}$$$$V2.0; N-terminus assumed)
μ opioid receptors (GPI); [6]
  IC50: 844 nM
δ opioid receptors (MVD)
  IC50: 303 nM
Rat NK1 (rNK1) receptor
  Ki: 3.4 nM
[2]; GPI SP-antagonist Ke (nM), Table 36
  Kb: 5 nM

## C[C@@H](NC(=O)[C@@H](N)Cc1ccc(O)cc1)C(=O)NCC(=O)N[C@@H](Cc1ccc(Cl)cc1)C(=O)NCC(=O)N[C@@H](Cc1c[nH]c2ccccc12)C(=O)OCc1cc(C(F)(F)F)cc(C(F)(F)F)c1 [NP46] (HELM PEPTIDE1{Y.[dA].G.[O=C([C@H](Cc1ccc(Cl)cc1)N[*:1])[*:2]].G.W.[FC(F)(F)c1cc(CO[*:1])cc(C(F)(F)F)c1]}$$$$V2.0; N-terminus assumed)
μ opioid receptors (GPI); Table 37, read-out: GPI μ-agonist IC50
  IC50: 124 nM

## Cc1cc(O)cc(C)c1C[C@H](N)C(=O)N[C@H](C)C(=O)N[C@@H](Cc1c[nH]c2ccccc12)C(=O)OCc1cc(C(F)(F)F)cc(C(F)(F)F)c1 [NP48]
μ opioid receptors (GPI); Table 36, at 1 μM
  GPI μ-agonist, % at 1 μM: 20.4% at 1 μM
δ opioid receptors (MVD)
  IC50: 408 nM

## CC(C)C[C@H](NC(=O)[C@@H]1CCCN1C(=O)[C@H](Cc1ccccc1)NC(=O)[C@H](Cc1ccccc1)NC(=O)CNC(=O)[C@@H](C)NC(=O)[C@@H](N)Cc1ccc(O)cc1)C(=O)N[C@@H](Cc1c[nH]c2ccccc12)C(=O)NCc1cc(C(F)(F)F)cc(C(F)(F)F)c1 [TY015] (HELM PEPTIDE1{Y.[dA].G.F.F.P.L.W.[FC(F)(F)c1cc(CN[*:1])cc(C(F)(F)F)c1]}$$$$V2.0; N-terminus assumed)
[1]; [11]
  Emax: 142%
[3]; Table 39, read-out: GTP binding rMOR EC50
  EC50: 176 nM
[3]; [12]
  Emax: 64.4%

## CC(C)C[C@H](NC(=O)[C@@H]1CCCN1C(=O)[C@H](Cc1ccccc1)NC(=O)[C@H](Cc1ccccc1)NC(=O)CNC(=O)[C@@H](C)NC(=O)[C@@H](N)Cc1ccc(O)cc1)C(=O)N[C@@H](Cc1c[nH]c2ccccc12)C(=O)N(C)Cc1cc(C(F)(F)F)cc(C(F)(F)F)c1 [TY017] (HELM PEPTIDE1{Y.[dA].G.F.F.P.L.W.[CN(Cc1cc(C(F)(F)F)cc(C(F)(F)F)c1)[*:1]]}$$$$V2.0; N-terminus assumed)
[1]; [11]
  Emax: 125%
[3]; [12]
  Emax: 62.4%

## CSCC[C@H](NC(=O)[C@H](Cc1ccccc1)NC(=O)CNC(=O)[C@@H](C)NC(=O)[C@@H](N)Cc1ccc(O)cc1)C(=O)N[C@H](CC(C)C)C(=O)N[C@@H](CC(C)C)C(=O)N[C@@H](Cc1c[nH]c2ccccc12)C(=O)OCc1cc(C(F)(F)F)cc(C(F)(F)F)c1 [TY021] (HELM PEPTIDE1{Y.[dA].G.F.M.[dL].L.W.[FC(F)(F)c1cc(CO[*:1])cc(C(F)(F)F)c1]}$$$$V2.0)
[1]; [11]
  Emax: 41.1%
[3]; [12]
  Emax: 51.4%

## CSCC[C@H](NC(=O)[C@H](Cc1ccccc1)NC(=O)CNC(=O)[C@@H](C)NC(=O)[C@@H](N)Cc1ccc(O)cc1)C(=O)NC(C)(C)C(=O)N[C@@H](CC(C)C)C(=O)N[C@@H](Cc1c[nH]c2ccccc12)C(=O)OCc1cc(C(F)(F)F)cc(C(F)(F)F)c1 [TY022]
[3]; [12]
  Emax: 32%

## CSCC[C@H](NC(=O)[C@H](Cc1ccccc1)NC(=O)CNC(=O)[C@@H](C)NC(=O)[C@@H](N)Cc1ccc(O)cc1)C(=O)N1CCC[C@@H]1C(=O)N[C@@H](CC(C)C)C(=O)N[C@@H](Cc1c[nH]c2ccccc12)C(=O)OCc1cc(C(F)(F)F)cc(C(F)(F)F)c1 [TY024]
[1]; read-out: GTP binding hDOR Emax
  Emax: 21%
[3]; read-out: GTP binding rMOR Emax
  Emax: 28%

## CSCC[C@H](NC(=O)[C@H](Cc1ccccc1)NC(=O)CNC(=O)[C@@H](C)NC(=O)[C@@H](N)Cc1ccc(O)cc1)C(=O)N1CCC[C@H]1C(=O)N[C@@H](CC(C)C)C(=O)N[C@@H](Cc1c[nH]c2ccccc12)C(=O)N(C)Cc1ccccc1 [TY026]
μ opioid receptors (GPI); [13]
  IC50: 86.7 nM
[4]
  Ki: 0.001 nM
δ opioid receptors (MVD)
  IC50: 7.89 nM
[1]; [11]
  Emax: 93%

## CSCC[C@H](NC(=O)[C@H](Cc1ccccc1)NC(=O)CNC(=O)[C@@H](C)NC(=O)[C@@H](N)Cc1ccc(O)cc1)C(=O)N1CCC[C@H]1C(=O)N[C@@H](CC(C)C)C(=O)N[C@@H](Cc1c[nH]c2ccccc12)C(=O)N(C)Cc1cc(C(F)(F)F)cc(C(F)(F)F)c1 [TY028]
μ opioid receptors (GPI); [13]
  IC50: 971 nM
δ opioid receptors (MVD)
  IC50: 11.2 nM
[1]; [11]
  Emax: 59%
[2]; GPI/LMMP SP antagonist (Ke; nM), Table 39
  Kb: 4.6 nM
[3]; [12]
  Emax: 52%

## COc1cc(COC(=O)[C@H](Cc2c[nH]c3ccccc23)NC(=O)[C@H](CC(C)C)NC(=O)[C@@H]2CCCN2C(=O)[C@H](CCSC)NC(=O)[C@H](Cc2ccccc2)NC(=O)CNC(=O)[C@@H](C)NC(=O)[C@@H](N)Cc2ccc(O)cc2)cc(OC)c1 [TY030]
μ opioid receptors (GPI); [13]
  IC50: 31 nM
[1]; [11]
  Emax: 61%
[3]; [12]
  Emax: 59%

## CSCC[C@H](NC(=O)[C@H](Cc1ccccc1)NC(=O)CNC(=O)[C@@H](CS)NC(=O)[C@@H](N)Cc1ccc(O)cc1)C(=O)N1CCC[C@H]1C(=O)N[C@@H](CC(C)C)C(=O)N[C@@H](Cc1c[nH]c2ccccc12)C(=O)OCc1cc(C(F)(F)F)cc(C(F)(F)F)c1 [TY031] (HELM PEPTIDE1{Y.[dC].G.F.M.P.L.W.[FC(F)(F)c1cc(CO[*:1])cc(C(F)(F)F)c1]}$$$$V2.0; N-terminus assumed)
δ opioid receptors (MVD)
  IC50: 235 nM

## CCCC[C@H](NC(=O)[C@H](Cc1ccccc1)NC(=O)CNC(=O)[C@@H](C)NC(=O)[C@@H](N)Cc1c(C)cc(O)cc1C)C(=O)N1CCC[C@H]1C(=O)N[C@@H](CC(C)C)C(=O)N[C@@H](Cc1c[nH]c2ccccc12)C(=O)NCc1cc(C(F)(F)F)cc(C(F)(F)F)c1 [TY050]
[3]; [12]
  Emax: 45%

## CSCC[C@H](N)C(=O)N1CCC[C@H]1C(=O)N[C@@H](CC(C)C)C(=O)N[C@@H](Cc1c[nH]c2ccccc12)C(=O)NCc1cc(C(F)(F)F)cc(C(F)(F)F)c1 [TY051] (HELM PEPTIDE1{M.P.L.W.[FC(F)(F)c1cc(CN[*:1])cc(C(F)(F)F)c1]}$$$$V2.0; N-terminus assumed)
[3]; Table 39
  GTP binding rMOR EC50: no response

## CCCC[C@H](NC(=O)[C@H](Cc1ccccc1)NC(=O)CNC(=O)[C@@H](C)NC(=O)[C@@H](N)Cc1c(C)cc(O)cc1C)C(=O)N1CCC[C@H]1C(=O)N[C@@H](CC(C)C)C(=O)N[C@@H](Cc1c[nH]c2ccccc12)C(=O)NCc1cccc(C(F)(F)F)c1 [TY053]
[4]
  Ki: 1.04 nM
[3]; [12]
  Emax: 20%
